Where “and” joins values, the source holds several entries; their conditions need not be identical. Equal entries are not always repeated.
System: 926638-142-R-J1-PDC complex spheroid viability
Assay: Anticancer human tumor 926638-142-R-J1-PDC patient-derived endometrial carcinoma cell line growth inhibition [POLQ]
Conditions: for viability, T/C: stronger effect = lower value; active = viability on the fitted dose curve at most 10% of control; inactive = the rest
Experimental: Multicellular complex tumor spheroid response to Polymerase (POL) inhibitors (novobiocin, ART-558, RP6685) in combination with a variety of drugs and investigational agents in selected tumor cell lines
The POL inhibitors (novobiocin, ART-558, and RP6685) were evaluated both individually and in combination with standard of care and investigational anticancer small molecules within a complex spheroid model of solid tumors. . Complex spheroids include a stromal component modeled by human endothelial cells (HUVEC) and fibroblasts modeled by human mesenchymal stem cells (MSCs). The concentration ranges selected for each drug and investigational agent were based upon clinically achievable concentrations if the clinical Cmax of the agent was known.
Compounds. The drugs and investigational agents: novobiocin (NSC847541), ART-558 (NSC835418), RP-6685 (NSC848927), peposertib (NSC802822), ceralasertib (NSC780249), elimusertib (NSC800525), camonsertib (NSC841442), AZD-1390 (NSC803789), olaparib (NSC753686), talazoparib (NSC767125), rucaparib (NSC756644), sotorasib (NSC818433), MRTX-1133 (NSC836407), SN-38 (NSC673596), topotecan (NSC609699), epotoside (NSC141540), doxorubicin (NSC123127), gemcitabine (NSC613327), 5-fluorouracil (NSC19893), paclitaxel (NSC125973), vemurafenib (NSC761431), MSA-2 (NSC828583), SN-011 (NSC837082), adavosertib (NSC754352), prexasertib (NSC758257), carboplatin (NSC241240) and oxaliplatin (NSC266046), were obtained from the National Cancer Institute (NCI) Developmental Therapeutics Program Chemical Repository (21). The FDA-approved anticancer drug set is available from the Developmental Therapeutics Program at https://dtp.cancer.gov/organization/dscb/obtaining/. […] The stock solutions were prepared in dimethyl sulfoxide (DMSO, Sigma-Aldrich, St. Louis, MO, cat. D2650), except for the platinum compounds which were prepared in saline (Quality Biological, Gaithersburg, MD, cat. 114-055-101), at 800-fold the tested concentration and stored at -70 degrees C prior to their use. All drugs and investigational agents were tested over a range starting from a high concentration at or near the clinical Cmax and decreasing in half-log increments. If the clinical Cmax for an agent had not been determined, the highest concentration tested was 10 microM, except for SN-38, which was tested at a high concentration of 1 microM.
Cell Culture. All cells were maintained in an incubator at 37 degrees C and 5% CO2 with 95% humidity. The PDC lines were cultured according to standard operating procedures established by the NCI PDMR (https://pdmr.cancer.gov). Table 3 of the manuscript, lists the cell lines along with the number of the three cell types plated to form the mct-spheroids and media for tumor cell growth. After thawing, all PDC lines, except 997537-175-T-J1-PDC and 415267-285-R-J2-PDC, were cultured in Matrigel-coated flasks prepared with a working solution of 1X Ham's F-12 nutrient mix, without supplementation (Thermo Fisher Scientific, cat. 11765054), 100 U/mL penicillin-streptomycin (Thermo Fisher Scientific, cat. 15140122), and 2.5% Matrigel (Corning Inc., Corning, NY, cat. 354248) for the first three passages. The two PDC lines 997537-175-T-J1-PDC and 415267-285-R-J2-PDC were cultured on uncoated flasks. The 857933-349-R-J2-PDC line was cultured in 6C/Colon 1B media containing advanced DMEM/F-12 (Thermo Fisher Scientific, cat. 12634028), 10 mM HEPES (Thermo Fisher Scientific, cat. 15630080), 1X GlutaMAX supplement (Thermo Fisher Scientific, cat. 35050061), 0.1 mg/mL primocin (InvivoGen, San Diego, CA, cat. ant-pm-2), 10% defined fetal bovine serum, heat inactivated (HyClone Laboratories Inc., Logan, UT, cat. SH30070.03HI), 50% L-WRN conditioned media (ATCC, cat. CRL-3276), 1.25 mM N-Acetyl-L-cysteine (Sigma-Aldrich, cat. A9165), 10 mM nicotinamide (Sigma-Aldrich, cat. N0636), 1X B-27 supplement (Thermo Fisher Scientific, cat. 17504044), 1X N-2 supplement (Thermo Fisher Scientific, cat. […]

[1] = compound alone, run of 01/08/2024
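Note: spheroids exposed to drugs for one week before readout.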
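Throughout, for viability, T/C: percent viability relative to DMSO vehicle control wells set as 100%.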

C#Cc1c(F)ccc2cc(O)cc(-c3ncc4c(N5CC6CCC(C5)N6)nc(OCC56CCCN5CC(F)C6)nc4c3F)c12 (stereo not drawn)
inactive: viability, T/C (compound 0.0316 µM) 85.1% and 98.5% and 86.6% | viability, T/C (compound 0.1 µM) 88.2% and 90.2% and 93.3% | viability, T/C (compound 0.316 µM) 79.4% and 92.4% and 73.8% | viability, T/C (compound 1 µM) 78.3% and 69.2% and 77.4% | viability, T/C (compound 3.16 µM) 65.5% and 80.2% and 60.2% | viability, T/C (compound 10 µM) 52.5% (2×) and 67.8%
> 10000 nM: IC50 (curve of compound)

C=CC(=O)N1CCN(c2nc(=O)n(-c3c(C)ccnc3C(C)C)c3nc(-c4c(O)cccc4F)c(F)cc23)C(C)C1 (stereo not drawn)
inactive: viability, T/C (compound 0.0316 µM) 73.8% and 100% and 104% | viability, T/C (compound 0.1 µM) 88.7% and 83.5% and 89.7% | viability, T/C (compound 0.316 µM) 75.7% and 108% and 103% | viability, T/C (compound 1 µM) 82.7% and 84.2% and 86.3% | viability, T/C (compound 3.16 µM) 72.6% and 88% and 81% | viability, T/C (compound 10 µM) 58.7% and 55% and 55.7%
> 10000 nM: IC50 (curve of compound)

CC(C)n1c(=O)n(C)c2cnc3cc(F)c(-c4ccc(OCCCN5CCCCC5)nc4)cc3c21
inactive: viability, T/C (compound 0.0316 µM) 98.1% and 96.9% and 85.4% | viability, T/C (compound 0.1 µM) 99.6% and 92.2% and 101% | viability, T/C (compound 0.316 µM) 78.3% and 94.7% and 126% | viability, T/C (compound 1 µM) 101% and 93.6% and 113% | viability, T/C (compound 3.16 µM) 89.7% and 80.9% and 94.1% | viability, T/C (compound 10 µM) 51.1% and 73.2% and 92.8%
> 10000 nM: IC50 (curve of compound)

CC1COCCN1c1cc(C2(O)CC3CCC(C2)O3)c2cnn(-c3ccn[nH]3)c2n1 (stereo not drawn)
active: viability, T/C (compound 3.16 µM) 6.85% and 6.69% and 9.86% | viability, T/C (compound 10 µM) 2.36% and 3.68% and 4.18%
inactive: viability, T/C (compound 0.0316 µM) 91.2% and 96.2% and 105% | viability, T/C (compound 0.1 µM) 64.1% and 73.2% and 58.2% | viability, T/C (compound 0.316 µM) 37% and 33.6% and 36.9% | viability, T/C (compound 1 µM) 12.2% and 13.1% and 15.8%
178 nM and 198 nM and 156 nM: IC50 (curve of compound)

CCc1cc2c(N3CCc4c(cc(Cn5ccnc5)cc4-c4cn(C)nc4C(F)(F)F)C3=O)cc(C)nc2c(OC)n1
373 nM and 987 nM and 595 nM: IC50 (curve of compound)
inactive: viability, T/C (compound 0.0316 µM) 76.6% and 76.9% and 72.4% | viability, T/C (compound 0.1 µM) 62.2% and 66.4% and 61.3% | viability, T/C (compound 0.316 µM) 52.8% and 62% and 51.8% | viability, T/C (compound 1 µM) 42% and 51.2% and 48.4% | viability, T/C (compound 3.16 µM) 26.5% and 38% and 43% | viability, T/C (compound 10 µM) 23.4% and 35.1% and 33.4%

CCc1cc2c(N3CCc4c(cc(Cn5ccnc5)cc4-c4cn(C)nc4C(F)(F)F)C3=O)ccnc2c(OC)n1
456 nM and 714 nM and 921 nM: IC50 (curve of compound)
inactive: viability, T/C (compound 0.0316 µM) 60.9% and 84.9% and 79% | viability, T/C (compound 0.1 µM) 79.4% and 67.7% and 61% | viability, T/C (compound 0.316 µM) 48% and 59.9% and 64.8% | viability, T/C (compound 1 µM) 43.1% and 45% and 49.4% | viability, T/C (compound 3.16 µM) 25.4% and 39.3% and 37.3% | viability, T/C (compound 10 µM) 27.3% and 29.5% and 28.1%

COC1C(OC(N)=O)C(O)C(Oc2ccc3c(O)c(NC(=O)c4ccc(O)c(CC=C(C)C)c4)c(=O)oc3c2C)OC1(C)C (stereo not drawn)
> 10000 nM: IC50 [1]
inactive: viability, T/C (compound 0.316 µM) 101% [middle of 13 runs] | viability, T/C (compound 10 µM) 98.8% [middle of 13 runs]

COc1cc2cc(C(=O)CCC(=O)O)sc2cc1OC
> 10000 nM: IC50 (curve of compound)
inactive: viability, T/C (compound 0.0316 µM) 90.1% and 110% and 93.5% | viability, T/C (compound 0.1 µM) 89.8% and 92.9% and 113% | viability, T/C (compound 0.316 µM) 98.2% and 105% and 100% | viability, T/C (compound 1 µM) 101% and 109% and 93.2% | viability, T/C (compound 3.16 µM) 99.7% and 107% and 75.5% | viability, T/C (compound 10 µM) 90.7% and 92.1% and 93.5%

Cc1cccc(N(C)C(=O)C2C(O)CCN2c2nc(C)cc(C(F)(F)F)c2C#N)c1 (stereo not drawn)
> 10000 nM: IC50 [1] | IC50 (compound alone, run of 01/19/2024)
inactive: viability, T/C (compound 0.1 µM) 92.5% [middle of 13 runs] | viability, T/C (compound 0.316 µM) 94.9% [middle of 13 runs]

O=C(Nc1ccc(O)c(NS(=O)(=O)c2ccc(F)cc2)c1)c1ccc(-c2ccccc2)cc1
inactive: viability, T/C (compound 0.0316 µM) 102% and 99.8% and 82.6% | viability, T/C (compound 0.1 µM) 96.1% and 93.2% and 102% | viability, T/C (compound 0.316 µM) 94.9% and 98.2% and 96% | viability, T/C (compound 1 µM) 100% and 98.5% and 103% | viability, T/C (compound 3.16 µM) 78.1% and 104% and 105% | viability, T/C (compound 10 µM) 59.8% and 65.5% and 79.2%
> 10000 nM: IC50 (curve of compound)

From PubChem BioAssay AID1963826 (Molecular Pharmacology Branch, DTP, NCI, 2024)
